According to patent US20250369975A1, “METHOD FOR DETECTING TRANSTHYRETIN TETRAMER, AND METHOD FOR EVALUATING STABILITY” (SYSMEX CORPORATION, priority 2024, published 2025):
Where two headings read alike, the source gives them in different places.

Assays:
[1] = tested on: TTR tetramer (recombinant human transthyretin WT, T119M, V30M); assay type: binding; conditions: probe solution 10 μM; recombinant TTR 100 ng/mL; FIG. 14A-D
[2] = target: T1, TTR tetramer (recombinant human transthyretin WT, T119M, V30M) (Homo sapiens, UniProt P02766, T139M); assay type: binding; conditions: probe solution 0.3 μM immobilized; FIG. 16A
T1 construct: purchased AlexoTech T-500-10 (WT); T-515-10 (T119M); T-505-10 (V30M)

[3] = target: T2, TTR tetramer (recombinant human transthyretin WT, T119M, V30M) (Homo sapiens, UniProt P02766, V50M); assay type: binding; conditions: probe solution 0.3 μM immobilized; FIG. 16A
T2 construct: purchased AlexoTech T-500-10 (WT); T-515-10 (T119M); T-505-10 (V30M)

[4] = tested on: TTR tetramer (recombinant human transthyretin WT, T119M, V30M); assay type: binding; conditions: probe solution 0.3 μM immobilized on solid phase; recombinant TTR 100 ng/mL; FIG. 16A-B
[5] = target: T1, TTR tetramer (recombinant human transthyretin WT, T119M, V30M); assay type: binding; conditions: probe solution 0.2 μM; FIG. 18A
[6] = target: T2, TTR tetramer (recombinant human transthyretin WT, T119M, V30M); assay type: binding; conditions: probe solution 0.2 μM; FIG. 18A
[7] = tested on: TTR tetramer (recombinant human transthyretin WT, T119M, V30M); assay type: binding; conditions: probe solution 0.2 μM mixed with sample; FIG. 18A-B
[8] = target: T1, TTR tetramer (recombinant human transthyretin WT, T119M, V30M); assay type: binding; conditions: probe solution 10 μM; recombinant TTR 100 ng/mL; FIG. 14A
[9] = target: T2, TTR tetramer (recombinant human transthyretin WT, T119M, V30M); assay type: binding; conditions: probe solution 10 μM; recombinant TTR 100 ng/mL; FIG. 14A
[10] = Comparative Example 2: 48-hour urea treatment, then sandwich ELISA (TTR 4mer %); assay type: physicochemical, human; conditions: urea 7.2 M, 25° C., Dunnett's test, FIG. 24A
Description: The recombinant TTR of the wild-type (WT), the stabilized variant (Ti19M), and the destabilized variant (V30M) as in Example 1 were used as the recombinant TTR. These recombinant TTRs were diluted with 1% BSA/PBS, to prepare a sample containing 16 µg/mL of each recombinant TTR. Sera obtained from patients with atrial fibrillation (n=26), wild-type ATTR patients (n=18), and ATTR patients with destabilized mutation (A36D) (n=2) were diluted 10 times with 1% BSA/PBS, to prepare various serum samples. A calibrator was prepared in the same manner as in Comparative Example 1.
As the detection antibody and the labeling substance, a biotin-labeled antibody solution and an ALP solution were prepared in the same manner as in Comparative Example 1. An anti-TTR antibody solution was prepared as the capture antibody in the same manner as in Comparative Example 1. […]
Each sample was measured by sandwich ELISA in the same manner as in (3.2) of Comparative Example 1. The calibrator was measured in the same manner. A calibration curve was prepared from the measured values of the calibrators, and the TTR level of each sample was acquired with use of the calibration curve. TTR 4 mer % of the sample after the urea treatment was calculated from the following calculation formula, using the TTR levels of the sample after the urea treatment and the sample without the urea treatment. […]

Compound: O=C(CCCCC1SCC2NC(=O)NC21)NCCOCCOCCOCCOCCOCCOCCOCCOCCC(=O)Nc1ccc(/C=C/c2cc(Br)c(O)c(Br)c2)cc1 (stereo not shown) [Probe C5, Biotin-PEG8-Stilbene Derivative]
- chemiluminescence signal measured values of WT, T119M and V30M samples versus blank [1]: results similar to those of FIG. 14 A
- signal measured value of T119M sample relative to WT sample [2]: higher than the signal measured value of WT
- signal measured value of V30M sample relative to WT sample [3]: lower than the signal measured value of WT
- chemiluminescence signal measured values of WT, T119M and V30M samples versus blank [4]: higher than the signal measured value of the blank
- signal measured value of T119M sample relative to WT sample [5]: higher than the signal measured value of WT
- signal measured value of V30M sample relative to WT sample [6]: lower than the signal measured value of WT
- chemiluminescence signal measured values of WT, T119M and V30M samples versus blank [7]: higher than the signal measured value of the blank

Compound: Biotin-PEG8-Thyroxine [Probe C1]
- signal measured value of T119M sample relative to WT sample [8]: higher than the signal measured value of WT
- signal measured value of V30M sample relative to WT sample [9]: lower than the signal measured value of WT
- chemiluminescence signal measured values of WT, T119M and V30M samples versus blank [1]: higher than the signal measured value of the blank

Compound: biotin-PEG12-thyroxine [Probe C2]
- chemiluminescence signal measured values of WT, T119M and V30M samples versus blank [1]: results similar to those of FIG. 14 A

Compound: transthyretin (T119M) human, recombinant [Probe T119M]
- TTR 4mer % relative to the sample containing wild-type TTR [10]: significantly higher

Compound: transthyretin (V30M) human [Probe V30M]
- TTR 4mer % relative to the sample containing wild-type TTR [10]: significantly lower
